{"source": "patent US20130046257A1", "about": "“METHODS OF USING AGENTS THAT MODULATE CLAUDIN EXPRESSION” (priority 2010, published 2013)", "molecules": {"B1": {"name": "IL-4: human IL-4 (R&D system), Th2 cytokine (protein, UniProt P05112 25-153, looked up)", "Interleukin-4": "HKCDITLQEIIKTLNSLTEQKTLCTELTVTDIFAASKNTTEKETFCRAATVLRQFYSHHEKDTRCLGATAQQFHRHKQLIRFLKRLDRNLWGLAGLNSCPVKEANQSTLENFLERLKTIMREKYSKCSS"}}, "key": {"[1]": {"tested_on": "CLDN1, occludin, ZO-1 and CLDN23", "experiment": "Western blot of TJ proteins in PHK treated with PGN or TLR2 ligands", "type": "cell-based, human", "conditions": "48 hr; PGN 0.2-20 μg/ml, Pam3CSK4 0.1-20 μg/ml, MALP2 10-1000 ng/ml", "protocol": "PHFK were treated with PGN (0, 0.2, 2, 20 μg/ml) (as shown in FIG. 21A), Pam3CSK4 (0, 0.1, 1, 20 μg/ml) (as shown in FIG. 21B), MALP2 (0, 10, 100, 1000 ng/ml) for 48 hr and CLDN1 (as shown in FIG. 21C), occludin, ZO-1 and CLDN23 protein levels were detected from whole cell lysates by Western blot. Quantitative protein expression was determined by densitometry of bands and normalization to the housekeeping protein ([…]). (Representative blot of n=2-3 experiments)."}, "[2]": {"tested_on": "primary human keratinocytes (PHK)", "experiment": "Trans Epithelial Electric Resistance (TEER) of PHK", "type": "cell-based", "protocol": "Human keratinocytes were isolated from neonatal foreskin. Poumay et al., “Basal Detachment of the Epidermis Using Dispase: Tissue Spatial Organization and Fate of Integrin Alpha 6 Beta 4 and Hemidesmosomes,” J. Invest. Dermatol. 102:111-7 (1994), which is hereby incorporated by reference in its entirety. PHK were cultured in Keratinocyte-SFM (Invitrogen/Gibco) with 1% Pen/Strep, 0.2% Amphotericin B (Invitrogen/Gibco). To differentiate PHK, cells were grown in DMEM (Invitrogen/Gibco) with 10% heat-inactivated fetal bovine serum (Invitrogen/Gibco) and 1% Pen/Strep, 0.2% Amphotericin B (Invitrogen/Gibco). For TJ modulation experiments, the following cytokines were added alone or in combination to the differentiation media; human IL-4 (50 ng/ml; R&D system) and IL-13 (50 ng/ml; R&D system).\nPHK were plated at a subconfluent density of 2.5−3×10^4 cells/filter in Transwell insert and cultured in Keratinocyte-SFM media until confluent. TEER was measured using an EVOMX voltohmmeter (World Precision Instruments, Sarasota, Fla.). The resistance of cell-free filters was subtracted from each experimental value.\nPHK were plated on glass coverslips at 2-3×10^5 cells/well in a 6-well plate or at 2-3×10^4 cells/filter in Transwell insert (Costar; PET membrane, 0.4 μm pore size, 6.5 mm insert) in Keratinocyte-SFM without antibiotics. The next day after plating, cells were transfected with claudin-1 specific or control (scrambled) siRNAs (Santa Cruz) using Lipofectamine™ 2000 transfection Reagent (Invitrogen). TEER and permeability experiments were conducted 48 hours after PHK were switched to differentiation media.\nTEER was measured in PHK as described above. PHK were stimulated with S. aureus-derived peptidoglycan (PGN, 0.2-20 μg/ml, n=3-7) (FIG. 19A), Malp-2 (10-1000 ng/ml, n=3) (FIG. 19B), and Pam3CSK4 a TLR1/2 ligand (0.01-20 μg/ml, n=3-6) (FIG. 19C). Data are presented by analyzing the area under the TEER curve and normalized to the mean values for the control group (media alone)*p<0.05; **p<0.01."}, "occludin and ZO-1": {"tested_on": "occludin and ZO-1", "experiment": "Expression of occludin and ZO-1 in PHK differentiated with Th2 cytokines", "type": "cell-based, human", "conditions": "PHK differentiated with cytokine", "protocol": "(§1) Human keratinocytes were isolated from neonatal foreskin. Poumay et al., “Basal Detachment of the Epidermis Using Dispase: Tissue Spatial Organization and Fate of Integrin Alpha 6 Beta 4 and Hemidesmosomes,” J. Invest. Dermatol. 102:111-7 (1994), which is hereby incorporated by reference in its entirety. PHK were cultured in Keratinocyte-SFM (Invitrogen/Gibco) with 1% Pen/Strep, 0.2% Amphotericin B (Invitrogen/Gibco). To differentiate PHK, cells were grown in DMEM (Invitrogen/Gibco) with 10% heat-inactivated fetal bovine serum (Invitrogen/Gibco) and 1% Pen/Strep, 0.2% Amphotericin B (Invitrogen/Gibco). For TJ modulation experiments, the following cytokines were added alone or in combination to the differentiation media; human IL-4 (50 ng/ml; R&D system) and IL-13 (50 ng/ml; R&D system). […]\n(§2) Previous studies have shown that claudin-1 expression in noncutaneous epithelial cells can be modulated by cytokines and growth factors. […] To test this possibility, PHK were differentiated in the presence or absence of Th2 cytokines, IL-4 and IL-13, and the expression of claudin-1, occludin and ZO-1 was evaluated. […]"}, "claudin-1": {"tested_on": "claudin-1", "sequence (O95832 whole entry)": "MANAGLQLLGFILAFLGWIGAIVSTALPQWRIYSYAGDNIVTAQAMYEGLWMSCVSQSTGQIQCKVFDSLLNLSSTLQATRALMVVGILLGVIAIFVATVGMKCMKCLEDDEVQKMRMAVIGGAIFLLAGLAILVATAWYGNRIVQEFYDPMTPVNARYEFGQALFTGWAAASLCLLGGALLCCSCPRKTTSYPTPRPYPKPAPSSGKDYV", "experiment": "Western blot of claudin-1 in PHK differentiated with Th2 cytokines", "type": "cell-based, human", "conditions": "48 hours, 50 ng/ml, n=3", "protocol": "as §1, §2"}, "human epidermis sheet": {"tested_on": "human epidermis sheet", "experiment": "TEER of human epidermal sheets treated with sodium decanoate", "type": "cell-based", "conditions": "1 mM, T0", "text": "Epidermal sheets were obtained from discarded human skin using a weck blade (0.08 inch). Epidermal samples were mounted in an adapted snap-well system (Pierro et al., “Zonula Occludens Toxin Structure-Function Analysis, Identification of the Fragment Biologically Active on Tight Junctions and of the Zonulin Receptor Binding Domain,” J. Biol."}, "[3]": {"tested_on": "human cultured keratinocytes and reconstructed human epidermis", "conditions": "Kurasawa et al. 2009; cited from earlier work"}, "occludin mRNA": {"tested_on": "occludin mRNA", "experiment": "qPCR of occludin in PHK treated with ciglitazone", "type": "cell-based, human", "conditions": "CIG 5 μM, 24 h, PHK in high Calcium media (DMEM)", "protocol": "(§3) PHK were differentiated in high Calcium media (DMEM) in the presence of CIG 5 μM in DMSO or media with equivalent amount of DMSO alone, for 24 h. Total RNA was extracted from PHK using the QlAshredder spin column (Qiagen) and RNeasy RNA isolation kits (Qiagen). The quality of total RNA samples (RNA Integrity Number, RIN) was assessed using an Agilent 2100 Bioanalyzer (Agilent Technologies, Palo Alto, Calif.).\n(§4) qPCR was performed using the iScript™ cDNA Synthesis kit and iQ™ SYBER Green Supermix assay system (Bio-Rad Laboratories). All PCR amplifications were carried out in triplicate on an iQ5 Multicolor real-time PCR detection system (Bio-Rad). Primers were designed and synthesized by Integrated DNA Technologies. Relative gene expression was calculated by using the 2^−ΔΔCt method, as previously described. The normalized Ct value of each sample was calculated using GAPDH as an endogenous control gene."}, "CLDN1 mRNA": {"tested_on": "CLDN1 mRNA", "experiment": "qPCR of CLDN1 in PHK treated with ciglitazone", "type": "cell-based, human", "conditions": "CIG 5 μM, 24 h, PHK in high Calcium media (DMEM)", "protocol": "as §3, §4"}}}
{"molecule": "Malp-2 [reference compound]", "values": [{"measurement": "TJ protein expressions", "setting": "[1]", "value": "increase TJ protein expressions"}, {"measurement": "tight junction function (area under the TEER curve normalized to media alone)", "setting": "[2]; PGN 0.2-20 μg/ml, Malp-2 10-1000 ng/ml, Pam3CSK4 0.01-20 μg/ml", "value": "increase tight junction function"}]}
{"molecule": "IL-13: IL-13 (R&D system), Th2 cytokine", "values": [{"measurement": "effect on TEER in dose response experiments", "setting": "[2]; 0.5-100 ng/ml, PHK", "value": "slight increase in TEER"}, {"measurement": "effect on expression of occludin and ZO-1", "setting": "occludin and ZO-1", "value": "no effect"}, {"measurement": "claudin-1 expression, fold over control", "setting": "claudin-1", "value": "1.6±0.3", "unit": "fold"}]}
{"molecule": "Pam3CSK4", "values": [{"measurement": "TJ protein expressions", "setting": "[1]", "value": "increase TJ protein expressions"}]}
{"molecule": "CCCCCCCCCC(=O)[O-].[Na+]", "note": "[sodium decanoate]", "values": [{"measurement": "TEER, dmem + SC_1", "setting": "human epidermis sheet", "value": 1.00}, {"measurement": "TEER, dmem + SC_2", "setting": "human epidermis sheet", "value": 1.00}, {"measurement": "TEER, mean SC", "setting": "human epidermis sheet", "value": 1.00}, {"measurement": "paracellular permeability", "setting": "[3]", "value": "increased paracellular permeability"}, {"measurement": "transepithelial electrical resistance", "setting": "[3]", "value": "decreased transepithelial electrical resistance"}]}
{"molecule": "CC1(COc2ccc(CC3SC(=O)NC3=O)cc2)CCCCC1", "note": "(stereo not shown) [ciglitazone]", "values": [{"measurement": "occludin mRNA, fold", "setting": "occludin mRNA", "value": 2.0, "unit": "fold"}, {"measurement": "occludin mRNA, fold", "setting": "occludin mRNA; listed as CIG", "value": 2, "unit": "fold"}, {"measurement": "CLDN1 mRNA, fold over DMSO alone", "setting": "CLDN1 mRNA", "value": 1.7, "unit": "fold"}]}
{"molecule": "B1", "values": [{"measurement": "effect on expression of occludin and ZO-1", "setting": "occludin and ZO-1", "value": "no effect"}, {"measurement": "claudin-1 expression, fold over control", "setting": "claudin-1", "value": "2.1±0.4", "unit": "fold"}]}
